This test relates to MV-4-11 cells. The test can be described thus: Gene expression microarray analysis (Affymetrix PrimeView) and GSEA. It is filed as cell-based, human. Further details: RFU PODN (11730768_x_at) / Fold change /veh PODN (11730768_x_at) / RFU LINC00158 (11744669_a_at) / Fold change /veh LINC00158 (11744669_a_at) / RFU DUSP10 (11751237_a_at) / Fold change /veh DUSP10 (11751237_a_at) / RFU ID3 (11757404_x_at) / Fold change /veh ID3 (11757404_x_at) / RFU PLEKHG5 (11737974_s_at) / Fold change /veh PLEKHG5 (11737974_s_at) / RFU LRRC4B (11730491_at) / Fold change /veh LRRC4B (11730491_at) / RFU GIMAP4 (11747438_a_at) / Fold change /veh GIMAP4 (11747438_a_at) / RFU KRT8 (11758183_x_at) / Fold change /veh KRT8 (11758183_x_at) / RFU CNN1 (11734310_a_at) / Fold change /veh CNN1 (11734310_a_at) / RFU VPS37D (11726825_at) / Fold change /veh VPS37D (11726825_at) / RFU C10orf10 (11716522_x_at) / Fold change /veh C10orf10 (11716522_x_at) / RFU KIR2DL2 /// KIR2DL4 /// KIR2DL5A /// KIR2DL5B /// KIR2DS1 /// KIR2DS2 /// KIR2DS3 /// KIR2DS4 /// KIR3DL3 /// KIR3DL3 /// KIR3DS1 (11738374_at) / Fold change /veh KIR2DL2 /// KIR2DL4 /// KIR2DL5A /// KIR2DL5B /// KIR2DS1 /// KIR2DS2 /// KIR2DS3 /// KIR2DS4 /// KIR3DL3 /// KIR3DL3 /// KIR3DS1 (11738374_at) / RFU C1QL1 (11718748_at) / Fold change /veh C1QL1 (11718748_at) / RFU TMPRSS4 (11747572_a_at) / Fold change /veh TMPRSS4 (11747572_a_at) / RFU HAMP (11756126_x_at) / Fold change /veh HAMP (11756126_x_at) / RFU RNFT2 (11725882_a_at) / Fold change /veh RNFT2 (11725882_a_at) / RFU NR4A2 (11747474_a_at) / Fold change /veh NR4A2 (11747474_a_at) / RFU ABCC12 (11746883_a_at) / Fold change /veh ABCC12 (11746883_a_at) / RFU TMEM136 (11760407_x_at) / Fold change /veh TMEM136 (11760407_x_at) / RFU CLDN22 /// WWC2 (11732394_at) / Fold change /veh CLDN22 /// WWC2 (11732394_at) / RFU HLA-DPB1 (11760878_x_at) / Fold change /veh HLA-DPB1 (11760878_x_at) / RFU SPINT1 (11716480_a_at) / Fold change /veh SPINT1 (11716480_a_at) / RFU GAP43 (11754022_s_at) / Fold change /veh GAP43 (11754022_s_at) / RFU A4GNT (11735810_at) / Fold change /veh A4GNT (11735810_at) / RFU PRB3 (11715151_x_at) / Fold change /veh PRB3 (11715151_x_at) / RFU TUBB4B (11761932_at) / Fold change /veh TUBB4B (11761932_at) / RFU CAPN14 (11732068_a_at) / Fold change /veh CAPN14 (11732068_a_at) / RFU TMCC2 (11721928_a_at) / Fold change /veh TMCC2 (11721928_a_at) / RFU IRGQ (11745062_a_at) / Fold change /veh IRGQ (11745062_a_at) / RFU FAM174B (11720279_a_at) / Fold change /veh FAM174B (11720279_a_at) / RFU TMPRSS4 (11748680_a_at) / Fold change /veh TMPRSS4 (11748680_a_at) / RFU FAM212B (11763350_a_at) / Fold change /veh FAM212B (11763350_a_at) / RFU PLEKHG5 (11743358_a_at) / Fold change /veh PLEKHG5 (11743358_a_at) / RFU ZSCAN30 (11745921_a_at) / Fold change /veh ZSCAN30 (11745921_a_at) / RFU CMKLR1 (11741424_a_at) / Fold change /veh CMKLR1 (11741424_a_at) / RFU LOC101060620 /// MAPK8IP1 (11723275_at) / Fold change /veh LOC101060620 /// MAPK8IP1 (11723275_at) / RFU SPTSSB (11747773_x_at) / Fold change /veh SPTSSB (11747773_x_at) / RFU PRSS12 (11739890_at) / Fold change /veh PRSS12 (11739890_at) / RFU BIN1 (11741810_x_at) / Fold change /veh BIN1 (11741810_x_at) / RFU WNT11 (11732464_a_at) / Fold change /veh WNT11 (11732464_a_at) / RFU C10orf10 (11716521_a_at) / Fold change /veh C10orf10 (11716521_a_at) / RFU C5orf56 (11738089_at) / Fold change /veh C5orf56 (11738089_at) / RFU CYB561 (11721691_x_at) / Fold change /veh CYB561 (11721691_x_at) / RFU ANKRD19P (11752326_a_at) / Fold change /veh ANKRD19P (11752326_a_at) / RFU OR2T12 /// OR2T33 /// OR2T8 (11738714_s_at) / Fold change /veh OR2T12 /// OR2T33 /// OR2T8 (11738714_s_at) / RFU VCAN (11748164_a_at) / Fold change /veh VCAN (11748164_a_at) / RFU JSRP1 (11732532_at) / Fold change /veh JSRP1 (11732532_at) / RFU KRTAP10-11 (11738290_x_at) / Fold change /veh KRTAP10-11 (11738290_x_at) / RFU MYO3A (11730013_a_at) / Fold change /veh MYO3A (11730013_a_at) / RFU EBF3 (11725865_a_at) / Fold change /veh EBF3 (11725865_a_at) / RFU CAMK2N1 (11719241_x_at) / Fold change /veh CAMK2N1 (11719241_x_at) / RFU C5orf56 (11738088_a_at) / Fold change /veh C5orf56 (11738088_a_at) / RFU OLFML3 (11715873_a_at) / Fold change /veh OLFML3 (11715873_a_at) / RFU LOC100653217 /// NTM (11731650_a_at) / Fold change /veh LOC100653217 /// NTM (11731650_a_at) / RFU MAPK11 (11762145_a_at) / Fold change /veh MAPK11 (11762145_a_at) / RFU FIZ1 (11724087_x_at) / Fold change /veh FIZ1 (11724087_x_at) / RFU OASL (11726364_x_at) / Fold change /veh OASL (11726364_x_at) / RFU SOX15 (11748057_x_at) / Fold change /veh SOX15 (11748057_x_at) / RFU CD79A (11719716_a_at) / Fold change /veh CD79A (11719716_a_at) / RFU HIST1H1D (11736915_at) / Fold change /veh HIST1H1D (11736915_at) / RFU CASKIN2 (11723855_a_at) / Fold change /veh CASKIN2 (11723855_a_at) / RFU LOC730098 (11760151_x_at) / Fold change /veh LOC730098 (11760151_x_at) / RFU OR4N2 (11742367_at) / Fold change /veh OR4N2 (11742367_at) / RFU PRRT2 (11749266_a_at) / Fold change /veh PRRT2 (11749266_a_at) / RFU SNX32 (11753110_a_at) / Fold change /veh SNX32 (11753110_a_at) / RFU CDHR5 (11726645_a_at) / Fold change /veh CDHR5 (11726645_a_at) / RFU RCAN1 (11760418_a_at) / Fold change /veh RCAN1 (11760418_a_at) / RFU FAM167A (11723789_a_at) / Fold change /veh FAM167A (11723789_a_at) / RFU FAM26E (11764081_at) / Fold change /veh FAM26E (11764081_at) / RFU ISYNA1 (11749810_s_at) / Fold change /veh ISYNA1 (11749810_s_at) / RFU ACY1 (11761880_at) / Fold change /veh ACY1 (11761880_at) / RFU 11764098_at / Fold change /veh 11764098_at / RFU SAMD14 (11745864_x_at) / Fold change /veh SAMD14 (11745864_x_at) / RFU NPB (11741838_a_at) / Fold change /veh NPB (11741838_a_at) / RFU TMPRSS6 (11731388_a_at) / Fold change /veh TMPRSS6 (11731388_a_at) / RFU KRTAP10-2 (11738614_at) / Fold change /veh KRTAP10-2 (11738614_at) / RFU ARHGAP8 /// PRR5-ARHGAP8 (11727945_x_at) / Fold change /veh ARHGAP8 /// PRR5-ARHGAP8 (11727945_x_at) / RFU KRTAP5-7 /// NADSYN1 (11734609_at) / Fold change /veh KRTAP5-7 /// NADSYN1 (11734609_at) / RFU RASL12 (11751679_a_at) / Fold change /veh RASL12 (11751679_a_at) / RFU CDKN2B (11736163_a_at) / Fold change /veh CDKN2B (11736163_a_at) / RFU PRF1 (11729649_at) / Fold change /veh PRF1 (11729649_at) / RFU, ZNF638 /// ZNF638-IT1 / Fold change vs veh, ZNF638 /// ZNF638-IT1 / RFU, PANK3 / Fold change vs veh, PANK3 / RFU, SH3YL1 / Fold change vs veh, SH3YL1 / RFU, ZEB2 / Fold change vs veh, ZEB2 / RFU, NRIP1 / Fold change vs veh, NRIP1 / RFU, PTTG1IP / Fold change vs veh, PTTG1IP / RFU, CAPN2 / Fold change vs veh, CAPN2 / RFU, MED14 / Fold change vs veh, MED14 / RFU, SNORA58 / Fold change vs veh, SNORA58 / RFU, C1orf63 / Fold change vs veh, C1orf63 / RFU, LRRFIP1 / Fold change vs veh, LRRFIP1 / RFU, NDUFAF7 / Fold change vs veh, NDUFAF7 / RFU, SLC12A2 / Fold change vs veh, SLC12A2 / RFU, IBTK / Fold change vs veh, IBTK / RFU, ESF1 / Fold change vs veh, ESF1 / Fold change vs veh, TMEM50B / RFU, TAOK1 / Fold change vs veh, TAOK1 / RFU, ACBD3 / Fold change vs veh, ACBD3 / RFU, TMA16 / Fold change vs veh, TMA16 / RFU, RWDD3 / Fold change vs veh, RWDD3 / RFU, BCAT1 / Fold change vs veh, BCAT1 / RFU, EDEM3 / Fold change vs veh, EDEM3 / RFU, TMEM33 / Fold change vs veh, TMEM33 / RFU, WDR75 / Fold change vs veh, WDR75 / RFU, AHCTF1 / Fold change vs veh, AHCTF1 / RFU, TFRC / Fold change vs veh, TFRC / RFU, ZDHHC17 / Fold change vs veh, ZDHHC17 / RFU, NOM1 / Fold change vs veh, NOM1 / RFU, ARL8B / Fold change vs veh, ARL8B / RFU, ZBTB11 / Fold change vs veh, ZBTB11 / RFU, TAMM41 / Fold change vs veh, TAMM41 / RFU, KIAA1704 /// LOC100996395 / Fold change vs veh, KIAA1704 /// LOC100996395 / RFU, ING1 / Fold change vs veh, ING1 / RFU, TRMT61B / Fold change vs veh, TRMT61B / RFU, FUBP3 / Fold change vs veh, FUBP3 / RFU, TP53 / Fold change vs veh, TP53 / RFU, TNKS2 / Fold change vs veh, TNKS2 / RFU, ZFP14 / Fold change vs veh, ZFP14 / RFU, ACTR2 / Fold change vs veh, ACTR2 / RFU, PPP3R1 / Fold change vs veh, PPP3R1 / RFU, PIK3R1 / Fold change vs veh, PIK3R1 / RFU, HNRNPA1 / Fold change vs veh, HNRNPA1 / RFU, RNF170 / Fold change vs veh, RNF170 / RFU, ZNF28 / Fold change vs veh, ZNF28 / RFU, RNGTT / Fold change vs veh, RNGTT / RFU, OGT / Fold change vs veh, OGT / RFU, BRD1 / Fold change vs veh, BRD1 / RFU, MARS / Fold change vs veh, MARS / RFU, ZNF655 / Fold change vs veh, ZNF655 / RFU, FAHD1 / Fold change vs veh, FAHD1 / RFU, BDP1 / Fold change vs veh, BDP1 / RFU, LRRCC1 / Fold change vs veh, LRRCC1 / RFU, ARID1A / Fold change vs veh, ARID1A / RFU, ZNF146 / Fold change vs veh, ZNF146 / RFU, ZNF330 / Fold change vs veh, ZNF330 / RFU, GPN3 / Fold change vs veh, GPN3 / RFU, C9orf123 / Fold change vs veh, C9orf123 / RFU, N4BP2L2 / Fold change vs veh, N4BP2L2 / RFU, ARFIP1 / Fold change vs veh, ARFIP1 / RFU, FAM179B / Fold change vs veh, FAM179B / RFU, BCL10 / Fold change vs veh, BCL10 / RFU, UHRF1BP1L / Fold change vs veh, UHRF1BP1L / RFU, BET1 / Fold change vs veh, BET1 / RFU, CNOT2 / Fold change vs veh, CNOT2 / RFU, ZNF268 / Fold change vs veh, ZNF268 / Fold change vs veh, ZNF507 / RFU, DGCR2 / Fold change vs veh, DGCR2 / RFU, WDSUB1 / Fold change vs veh, WDSUB1 / Fold change vs veh, HSP90B1 /// MIR3652 / RFU, ADSS / Fold change vs veh, ADSS / RFU, GK / Fold change vs veh, GK / RFU, ZNF148 / Fold change vs veh, ZNF148 / RFU, TAF9 / Fold change vs veh, TAF9 / RFU, SLC1A5 / Fold change vs veh, SLC1A5 / RFU, SLMO2 / Fold change vs veh, SLMO2 / RFU, ABCC4 / Fold change vs veh, ABCC4 / RFU, LOC101060439 /// RAP1B / Fold change vs veh, LOC101060439 /// RAP1B / RFU, RFX7 / Fold change vs veh, RFX7 / RFU, GTPBP10 / Fold change vs veh, GTPBP10 / RFU, CNEP1R1 / Fold change vs veh, CNEP1R1 / RFU, BIVM-ERCC5 /// ERCC5 / Fold change vs veh, BIVM-ERCC5 /// ERCC5 / RFU, ILF3 / Fold change vs veh, ILF3 / RFU 11762660_at / Fold change /veh 11762660_at / RFU VCAN (11757783_s_at) / Fold change /veh VCAN (11757783_s_at) / RFU DDX43 (11728927_at) / Fold change /veh DDX43 (11728927_at) / RFU KRT8 (11758188_x_at) / Fold change /veh KRT8 (11758188_x_at) / RFU NKD1 (11759106_at) / Fold change /veh NKD1 (11759106_at) / RFU SRD5A1 (11742802_a_at) / Fold change /veh SRD5A1 (11742802_a_at) / RFU TPSAB1 /// TPSB2 (11721975_s_at) / Fold change /veh TPSAB1 /// TPSB2 (11721975_s_at) / RFU GSTM3 (11746129_a_at) / Fold change /veh GSTM3 (11746129_a_at) / RFU IL23R (11737362_x_at) / Fold change /veh IL23R (11737362_x_at) / RFU TMEM51 (11727254_a_at) / Fold change /veh TMEM51 (11727254_a_at) / RFU PIWIL2 (11732686_x_at) / Fold change /veh PIWIL2 (11732686_x_at) / RFU ORM1 (11744905_x_at) / Fold change /veh ORM1 (11744905_x_at) / RFU CCDC152 (11743942_at) / Fold change /veh CCDC152 (11743942_at) / RFU ECM1 (11717891_a_at) / Fold change /veh ECM1 (11717891_a_at) / RFU IL23R (11748794_a_at) / Fold change /veh IL23R (11748794_a_at) / RFU TNFAIP8L3 (11732012_x_at) / Fold change /veh TNFAIP8L3 (11732012_x_at) / RFU MBOAT4 (11741988_at) / Fold change /veh MBOAT4 (11741988_at) / RFU 11764193_at / Fold change /veh 11764193_at / RFU TMEM53 (11763286_at) / Fold change /veh TMEM53 (11763286_at) / RFU MAGEB2 (11727129_at) / Fold change /veh MAGEB2 (11727129_at) / RFU TMEM200A (11744735_a_at) / Fold change /veh TMEM200A (11744735_a_at) / RFU CCDC152 (11751479_a_at) / Fold change /veh CCDC152 (11751479_a_at) / RFU FAM211A (11726209_a_at) / Fold change /veh FAM211A (11726209_a_at) / RFU RGS16 (11746705_a_at) / Fold change /veh RGS16 (11746705_a_at) / RFU VCAN (11755009_s_at) / Fold change /veh VCAN (11755009_s_at) / RFU RHOB (11743442_s_at) / Fold change /veh RHOB (11743442_s_at) / RFU RGS16 (11720943_a_at) / Fold change /veh RGS16 (11720943_a_at) / RFU RGS16 (11720944_at) / Fold change /veh RGS16 (11720944_at) / RFU, VPS4B / Fold change vs veh, VPS4B / RFU, CREB1 / Fold change vs veh, CREB1 / RFU, DNAJC13 / Fold change vs veh, DNAJC13 / RFU, GNAQ / Fold change vs veh, GNAQ / RFU, CDK5R1 / Fold change vs veh, CDK5R1 / RFU, ZRANB3 / Fold change vs veh, ZRANB3 / RFU, CUL4A / Fold change vs veh, CUL4A / RFU, CCNY / Fold change vs veh, CCNY / RFU, UFL1 / Fold change vs veh, UFL1 / RFU, COG3 / Fold change vs veh, COG3 / RFU, DIAPH2 / Fold change vs veh, DIAPH2 / RFU, SKA2 / Fold change vs veh, SKA2 / RFU, AFF3 / Fold change vs veh, AFF3 / RFU, LMF1 / Fold change vs veh, LMF1 / RFU, IPO11 / Fold change vs veh, IPO11 / RFU, DFFB / Fold change vs veh, DFFB / RFU, FOXP1 / Fold change vs veh, FOXP1 / RFU, CARD8 / Fold change vs veh, CARD8 / RFU, STRN3 / Fold change vs veh, STRN3 / RFU, ADK / Fold change vs veh, ADK / RFU, RASSF2 / Fold change vs veh, RASSF2 / RFU, WIPF1 / Fold change vs veh, WIPF1 / RFU, LARP1B / Fold change vs veh, LARP1B / RFU, RASA1 / Fold change vs veh, RASA1 / RFU, RB1 / Fold change vs veh, RB1 / RFU, PPFIA1 / Fold change vs veh, PPFIA1 / RFU, MAT2A / Fold change vs veh, MAT2A / RFU, CCT5 / Fold change vs veh, CCT5 / RFU, WDR92 / Fold change vs veh, WDR92 / RFU, CUX1 / Fold change vs veh, CUX1 / RFU, TTC7A / Fold change vs veh, TTC7A / RFU, TMEM135 / Fold change vs veh, TMEM135 / RFU, DEPTOR / Fold change vs veh, DEPTOR / RFU, CPM / Fold change vs veh, CPM / RFU, DNAJB6 / Fold change vs veh, DNAJB6 / RFU, CACNA2D3 / Fold change vs veh, CACNA2D3 / RFU, DTX4 / Fold change vs veh, DTX4 / RFU, TFCP2 / Fold change vs veh, TFCP2 / RFU, GMCL1 /// GMCL1P1 / Fold change vs veh, GMCL1 /// GMCL1P1 / RFU, AEBP2 / Fold change vs veh, AEBP2 / RFU, SNHG1 /// SNORD22 /// SNORD25 /// SNORD26 /// SNORD27 /// SNORD28 /// SNORD29 /// SNORD31 / Fold change vs veh, SNHG1 /// SNORD22 /// SNORD25 /// SNORD26 /// SNORD27 /// SNORD28 /// SNORD29 /// SNORD31 / Fold change (Aza/veh), C12orf56 (ProbeSet 11735607_a_at) / Fold change (ACY-1035/veh), C12orf56 (ProbeSet 11735607_a_at) / Fold change (Aza/veh), FGFR1OP (ProbeSet 11751329_s_at) / Fold change (ACY-1035/veh), FGFR1OP (ProbeSet 11751329_s_at) / Fold change (Aza/veh), VPS36 (ProbeSet 11739960_a_at) / Fold change (ACY-1035/veh), VPS36 (ProbeSet 11739960_a_at) / RFU SYPL1 (11715823_x_at) / Fold change /veh SYPL1 (11715823_x_at) / RFU IGFBP7 (11715501_s_at) / Fold change /veh IGFBP7 (11715501_s_at) / RFU REEP3 (11722064_at) / Fold change /veh REEP3 (11722064_at) / RFU IGLL1 (11728026_x_at) / Fold change /veh IGLL1 (11728026_x_at): dose or concentration left out as unconfirmed. The settings on record: ProbeSet 11729384_s_at; LIST D.

Consider `Nc1ncn([C@@H]2O[C@H](CO)[C@@H](O)[C@H]2O)c(=O)n1` [azacitidine], for which the “Fold change vs veh, CCNY” value turned out to be 0.82.

(Values after PMC5218480 (PLoS ONE, 2017).)
